Tests used:
[1] = tested on: P. falciparum; experiment: Intravenous BrEA malaria patient trial; type: in vivo; conditions: day 14, two patients
Experimental: Response to drug treatment was graded as per World Health Organization criteria (WHO 1973) in infected patients. Evaluation of therapeutic response was determined using the parasitic and fever clearance times. […]
Microscopy. […] Parasitemia was quantified in thin films by counting 2000 red blood cells in clear contiguous fields and finding the proportion that was parasitized. In thick films, parasitemia was quantified by counting parasites against leukocytes. […] Approximately 5000 erythrocytes were counted in clear contiguous fields 24 and 48 h after incubation of blood obtained at each time point and graded for maturity into tiny rings, small rings, large rings, pigmented trophozoites and schizonts. […]
Calculation of Parameters. […] Parasitemia quantification and clinical examination were done once every 6 hours for the first 72 hours, followed by daily assessment of the parameters up to day 7 (168 hrs) and thereafter on day 14.
Blood films were Giemsa-stained and parasitemia quantification was done in thick films by counting 2000 parasites against leukocytes, and the thin films by finding the proportion of infected red blood cells. […]

[2] = tested on: pentosephosphate shunt (PPS) activity in normal human RBC; experiment: PPS flux in whole normal human RBC; type: cell-based
From the text: The effect of BrEA on pentosephosphate shunt (PPS) activity in normal human RBC was examined using whole cells. Since glucose-6-phosphate dehydrogenase (“G6PD”) is the limiting enzyme of the PPS, PPS flux measurement is considered to better reflect G6PD activity in the whole cell compared to G6PD activity measurement in a cell lysate. […] PPS flux and G6PD activity in the whole RBC depends on a number of factors (the concentration of NADPH, NAD, and ATP, and intracellular pH), which are kept constant if the measurement is performed in the lysate and may vary in the whole RBC. Levels of G6PD activity in cells is considerably above normal basal needs and inhibition of overall G6PD activity might have no or minor consequence on PPS flux in the whole cell. […] A series of experiments were performed using varying amounts of BrEA and PPS flux was measured in unstimulated basal RBC and in methylene-blue (MB)-stimulated RBC.
Different concentrations of BrEA (0.3, 3.5 and 7 micromolar, final) were supplemented to suspensions of washed RBC suspended in RPMI, pH 7.4 at 10% hematocrit, whereby PPS flux was immediately measured without further incubation and without further washings.
In these experiments, different concentrations of BrEA ˜0.8, 8 and 80 micromolar, final) were supplemented to suspensions of washed RBC suspended in RPMI, pH 7.4 at 10% hematocrit. After a 90-min incubation at 37° C. with and without BrEA, PPS flux was measured.

[3] = tested on: HIV infected patients with chronic diarrhea; experiment: Treatment of chronic diarrhea in HIV infected patients; type: in vivo, human; conditions: two HIV infected patients, 60 mg s.c. daily for 10 days, during the period of dosing
Experimental: Two HIV infected patients with chronic diarrhea were dosed with BrEA as follows. A BrEA formulation (40 mg/mL BrEA in 25% v/v PEG 300, 12.5% v/v ethanol, 5% v/v benzyl benzoate, ˜57.5% v/v propylene glycol) was delivered subcutaneously. The patients received 60 mg of BrEA in 1.5 mL daily for 10 days. […] After the 10-day dosing period ended, diarrhea resumed. In other patients receiveing oral BrEA, diarrhea also went into remission.

[4] = tested on: HCV; experiment: HCV level by PCR in HIV/HCV infected patient dosed I.V. with BrEA; type: in vivo; conditions: predosing 6.5
Experimental: A patient infected with HIV and HCV was dosed I.V. with BrEA for 3 consecutive days using a formulation that contained 20 mg/mL BrEA in 45% w/v hydroxypropyl-β-cyclodextrin and saline. Four mL of the formulation (80 mg BrEA) was administered to the patient every 4 hours during the 3 day treatment period. The patient's predosing HCV level was 6.5 Log10 as measured by PCR and the HCV level was 6.2 Log10 on the first day of dosing, 5.5 Log10 on the 3rd day of dosing and 4.9 Log10 three days after the last dose was administered. HIV RNA levels as measured by PCR was 5.2 Log10 (predosing), 5.8 Log10 (first day), 5.9 Log10 (third day) and 5.4 Log10 (day 6). The NK cell counts (cells/mm^3) were 28, 41 and 38 at predosing, day 0 and day 3.

For `C[C@]12CC[C@H](O)C[C@@H]1CC[C@@H]1[C@@H]2CC[C@]2(C)C(=O)[C@H](Br)C[C@@H]12` [BrEA, 16α-bromo-3β-hydroxy-5α-androstane-17-one], the parasite clearance rate [1] was 100%, the PPS flux ([2]; 0.3 μM, MB stimulated RBC, no incubation, DMSO control 5090) was 5000 micromoles/hour/ml RBC and the PPS flux ([2]; 0.3 μM, unstimulated RBC, no incubation, DMSO control 270) was 250 micromoles/hour/ml RBC. For the same compound, the PPS flux ([2]; 0.8 μM, MB stimulated, 90-min incubation, average of 3 experiments, DMSO control 4890) was 4930 micromoles/hour/ml RBC, the PPS flux ([2]; 0.8 μM, unstimulated, 90-min incubation at 37° C., average of 3 experiments, DMSO control 480) was 410 micromoles/hour/ml RBC and the PPS flux ([2]; 3.5 μM, MB stimulated RBC, no incubation, DMSO control 5090) was 4950 micromoles/hour/ml RBC. The PPS flux ([2]; 3.5 μM, unstimulated RBC, no incubation, DMSO control 270) was 270 micromoles/hour/ml RBC, the PPS flux ([2]; 7 μM, MB stimulated RBC, no incubation, DMSO control 5090) was 4660 micromoles/hour/ml RBC and the “inhibition of MB-stimulated PPS flux” value ([2]; 7 μM, no incubation) was “minor inhibition”. It also gave a PPS flux ([2]; 7 μM, unstimulated RBC, no incubation, DMSO control 270) of 295 micromoles/hour/ml RBC, a PPS flux ([2]; 8 μM, MB stimulated, 90-min incubation, average of 3 experiments, DMSO control 4890) of 4430 micromoles/hour/ml RBC and a PPS flux ([2]; 8 μM, unstimulated, 90-min incubation, average of 3 experiments, DMSO control 480) of 450 micromoles/hour/ml RBC. The PPS flux ([2]; 80 μM, MB stimulated, 90-min incubation, average of 3 experiments, DMSO control 4890) was 3660 micromoles/hour/ml RBC, the PPS flux ([2]; 80 μM, unstimulated, 90-min incubation, average of 3 experiments, DMSO control 480) was 450 micromoles/hour/ml RBC and the inhibition at 8 µM ([2]; Homo sapiens, 1.5 h, 8 micromolar, 90-min incubation, p=0.006 vs control+DMSO, read-out: Inhibition of MB-stimulated PPS flux) was 10%. For the same compound, the inhibition at 80 µM ([2]; Homo sapiens, 1.5 h, 80 micromolar, 90-min incubation, p=0.002 vs control+DMSO, read-out: Inhibition of MB-stimulated PPS flux) was 25%, the “effect on chronic diarrhea” value [3] was “the diarrhea ceased” and the “HCV level by PCR” value ([4]; 3rd day of dosing) was 5.5 Log10. For the same compound, the “HCV level by PCR” value ([4]; first day of dosing, 80 mg I.V. every 4 hours for 3 days) was 6.2 Log10 and the “HCV level by PCR” value ([4]; three days after the last dose) was 4.9 Log10.

— US20070275936A1, “Formulations and Treatment Methods” (priority 1998, published 2007)
